One data set deals with YB-1 (Homo sapiens, UniProt P67809). Briefly: Cellular Thermal Shift Assay (CETSA) in OVCAR8 cells. Type of data set: binding. Details: endogenous in cells; host or cells: OVCAR8. The following applies: SU056 2.5 μM, 1.5 h, read-out: increase in thermal stability (Tm shift) of YB-1. How it is done:
(§1) The cellular thermal shift assay (CETSA) is based on the principle of protein-ligand interactions causing a shift in protein thermal stability (Savitski et al., 2014). When a protein interacts with ligand, its thermal stability increases, and this principle allows identification of which protein targets that are engaged by small molecules or drug candidates. We used this assay to identify protein targets of SU056. OVCAR8 cells were treated with SU056 (2.5 μM) for 1.5 h, and protein lysates were analyzed for a thermal shift. The heat maps represent the thermal stability of 804 soluble proteins in the presence and absence of SU056 compare with 37° C. (FIG. 3A).
(§2) Cellular Thermal Shift Assay (CETSA): The assay was performed as previously described (Savitski et al., 2014). Briefly, OVCAR8 cells were treated with vehicle (DMSO) or SU056 (2.5 μM) at 70-80% confluency for 1.5 h. Cells were harvested and washed with 1×PBS twice. Cells were pelleted and resuspended in PBS. 10 different PCR tubes with 1×10^6 cells/tube (in 100 μL PBS) were prepared for both the groups. Tubes were exposed to respective temperatures (37, 41, 44, 47, 50, 53, 56, 59, 63, 67° C.) for 3 min using a thermal cycler (Bio-Rad, CA, USA) followed by 2 min incubation at room temperature.

The next data set is described as follows: Pharmacokinetics study. The format is in vivo. The following applies: injection of 20 mg/kg, intraperitoneal, mouse. How it is done:
In a pharmacokinetics study in vivo, injection of 20 mg/kg SU056 led to a maximum serum concentration of 28.19 μg/mL with a T1/2 of ˜45 min. We then tested the synergism of paclitaxel and SU056 co-treatment in vivo in NOD-SCID mice implanted with OVCAR8 OC tumors as described above. Mice were given daily treatment of SU056 (10 mg/kg) and weekly treatment of paclitaxel (5 mg/kg) were administered intraperitoneally. […] This likely resulted from decreased paclitaxel efflux from OVCAR8 cells in the presence of SU056.
Pharmacokinetics study: SU056 Plasma concentration was determined by mass quantification analysis using an Agilent 6490 Funnel triple quadrupole (QQQ) mass spectrometer equipped with an Agilent 1290 infinity II UHPLC. An analytical C18 column, ZORBAX C18 (Eclipse Plus, 2.1×50 mm, 1.8 μm particle size) was used. The mobile phase was composed of 60% water buffered with 0.1% formic acid and 4 mM ammonium formate and 40% acetonitrile buffered with 0.1% formic acid. […] The precursor ion [M+H]+ and product ion for SU056 were monitored at m/z 370.0 and m/z 274.2, respectively. And the precursor ion [M+H]+ and product ion for IS were monitored at m/z 338.1 and m/z 260, respectively. […]
FIG. 10: Pharmacokinetics of SU056. […] After injection plasma was collected at respective time point and was analyzed using LC MS/MS as described in method.

Data set [1] concerns OVCAR4, OVCAR5 and ID8 cells. Briefly: Cell viability (MTT) assay, ovarian cancer cell lines. Type of data set: cell-based. The conditions noted are these: 48 h of treatment. The text has this: (§3) We tested the relationship between AzPs dose and the viability of human ovarian cancer cell lines and the ID8 murine ovarian cancer cell line.
(§4) FIG. 1A) Lead optimization of SU093 to obtain SU056. FIG. 1B) IC50 values of SU093 and SU056 on various ovarian cancer cells. Clonogenic survival of OC cells treated with SU093 or SU056. […] FIG. 1C) Representative colony formation from respective wells. FIG. 1D) Number of colonies formed after SU093 and SU056 treatment. […] FIG. 1F) Cell cycle distribution of propidium iodide (PI)-stained OVCAR8, SKOV3, and ID8 cells. […] FIG. 1G) Effects of SU093 and SU056 on apoptotic cell death analyzed by Annexin-FITC staining. […] FIG. 1H) Cell migration assay.

The next data set concerns OVCAR-8 and ID8 cells. The data set can be described thus: Clonogenic assay. Type of data set: cell-based. How it is done: as §3
Clonogenic assay: 300 suspended OC cells were plated in each well of 12 well plates (Corning-Costar, #3598) and incubated for 24 h for attachment. The media was replaced after 24 h with media containing a respective concentration of the test compound and incubated for 5-8 days until visible colonies appeared in vehicle-treated wells. Cells were then washed and fixed with 2% paraformaldehyde, followed by washing and staining with 0.5% Crystal violet for 1 h. Cells were de-stained using DI water and allowed to dry. Colonies were counted under the microscope at 100× magnification.
as §4

In the next data set the target is T1, CALM3 (Homo sapiens, UniProt P0DP25).
T1 construct: endogenous in cells; host or cells: OVCAR8
The data set can be described thus: Cellular Thermal Shift Assay (CETSA) in OVCAR8 cells. Type of data set: binding. The conditions noted are these: SU056 2.5 μM, 1.5 h, read-out: increase in thermal stability (Tm shift) of CALM3. As to the method:
as §1, §2

In another data set the target is T2, TMSB10 (Homo sapiens, UniProt P63313).
T2 construct: endogenous in cells; host or cells: OVCAR8
The description is as above. The format is binding. The following applies: SU056 2.5 μM, 1.5 h, read-out: increase in thermal stability (Tm shift) of TMSB10. As to the method: as §1, §2

The target of a further data set is T3, SUMO2 (Homo sapiens, UniProt P61956).
T3 construct: endogenous in cells; host or cells: OVCAR8
Described as above. The format is binding. The conditions noted are these: SU056 2.5 μM, 1.5 h, read-out: increase in thermal stability (Tm shift) of SUMO2. As to the method:
as §1, §2

In general, half-life refers to the time in which the quantity being followed falls by half.

T3 sequence (P61956 1-93 limits assumed): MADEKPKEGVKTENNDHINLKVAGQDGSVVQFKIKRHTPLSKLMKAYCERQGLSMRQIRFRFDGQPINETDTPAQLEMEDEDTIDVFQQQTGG
Chain of YB-1 (P67809 whole entry): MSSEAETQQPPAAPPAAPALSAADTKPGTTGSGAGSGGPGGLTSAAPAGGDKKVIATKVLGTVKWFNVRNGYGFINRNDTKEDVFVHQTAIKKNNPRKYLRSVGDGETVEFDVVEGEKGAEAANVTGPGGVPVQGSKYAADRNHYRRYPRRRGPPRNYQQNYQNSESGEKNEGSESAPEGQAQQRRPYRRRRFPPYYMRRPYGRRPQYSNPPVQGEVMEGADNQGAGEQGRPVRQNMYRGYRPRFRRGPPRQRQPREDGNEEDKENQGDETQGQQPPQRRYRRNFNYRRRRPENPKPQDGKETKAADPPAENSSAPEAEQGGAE
T2 sequence (P63313 whole entry): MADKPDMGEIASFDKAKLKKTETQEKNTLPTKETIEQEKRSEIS

As to `O=C1OCC2=C1C(c1cccc(F)c1)c1cc3c(cc1N2CCO)OCO3` (centres unmarked) [SU056, 9-(3-fluorophenyl)-5-(2-hydroxyethyl)-6,9-dihydro-[1,3]dioxolo[4,5-g]furo[3,4-b]quinolin-8(5H)-one], the ΔTm at 2.5 µM on YB-1 amounted to 5.92 ± 0.86 °C; at CALM3, 4.03 ± 1.07 °C; at TMSB10 it was 5.89 ± 1.18 °C; on SUMO2 it was 5.4 ± 1.08 °C. In addition, the maximum serum concentration in “Pharmacokinetics study” was determined as 28.19 µg/mL. The half-life in “Pharmacokinetics study” (plasma, ip) was roughly 45 min. Further, in data set [1], the “decrease of IC50 compared to SU093” value is reported as “up to 2 fold”. The OC colony formation result with OVCAR-8 and ID8 cells is “decreased OC colony formation in a dose-dependent and significant manner”.

The record behind these values is US20240016784A1, “Y BOX BINDING PROTEIN 1 INHIBITORS” (Oregon Health & Science University, priority 2020, published 2024).
